# According to ChEMBL document CHEMBL5465560, “Selectivity Literature for EUbOPEN Chemogenomic Library” (2024):
# Legend:
# [1] = molecular target: Cyclin-dependent kinase 15 (Homo sapiens) (UniProt Q96Q40); assay: Selectivity interaction (KinomeScan (DiscoverX)) EUB0000666a CDK15; details: at 10 µM
# [2] = molecular target: Mitogen-activated protein kinase 10 (Homo sapiens, UniProt P53779); details: at 10 µM
# [3] = molecular target: Serine/threonine-protein kinase pim-2 (Homo sapiens, UniProt Q9P1W9); details: at 10 µM
# Chain of Serine/threonine-protein kinase pim-2 (Q9P1W9 whole entry, looked up): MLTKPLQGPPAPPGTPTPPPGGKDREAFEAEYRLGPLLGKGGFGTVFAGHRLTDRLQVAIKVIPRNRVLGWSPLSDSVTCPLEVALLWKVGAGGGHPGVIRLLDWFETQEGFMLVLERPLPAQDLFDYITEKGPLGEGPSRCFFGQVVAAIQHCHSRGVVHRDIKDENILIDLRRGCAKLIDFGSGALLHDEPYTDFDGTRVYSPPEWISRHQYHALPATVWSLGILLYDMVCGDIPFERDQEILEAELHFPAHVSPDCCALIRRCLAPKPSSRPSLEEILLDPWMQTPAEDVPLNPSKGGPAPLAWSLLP
# [4] = molecular target: Rho-associated protein kinase 2 (Homo sapiens, UniProt O75116); assay: Selectivity interaction (Kinase panel (literature)) EUB0001199aCl ROCK2; details: at 1 µM
# Chain of Rho-associated protein kinase 2 (O75116 whole entry, looked up): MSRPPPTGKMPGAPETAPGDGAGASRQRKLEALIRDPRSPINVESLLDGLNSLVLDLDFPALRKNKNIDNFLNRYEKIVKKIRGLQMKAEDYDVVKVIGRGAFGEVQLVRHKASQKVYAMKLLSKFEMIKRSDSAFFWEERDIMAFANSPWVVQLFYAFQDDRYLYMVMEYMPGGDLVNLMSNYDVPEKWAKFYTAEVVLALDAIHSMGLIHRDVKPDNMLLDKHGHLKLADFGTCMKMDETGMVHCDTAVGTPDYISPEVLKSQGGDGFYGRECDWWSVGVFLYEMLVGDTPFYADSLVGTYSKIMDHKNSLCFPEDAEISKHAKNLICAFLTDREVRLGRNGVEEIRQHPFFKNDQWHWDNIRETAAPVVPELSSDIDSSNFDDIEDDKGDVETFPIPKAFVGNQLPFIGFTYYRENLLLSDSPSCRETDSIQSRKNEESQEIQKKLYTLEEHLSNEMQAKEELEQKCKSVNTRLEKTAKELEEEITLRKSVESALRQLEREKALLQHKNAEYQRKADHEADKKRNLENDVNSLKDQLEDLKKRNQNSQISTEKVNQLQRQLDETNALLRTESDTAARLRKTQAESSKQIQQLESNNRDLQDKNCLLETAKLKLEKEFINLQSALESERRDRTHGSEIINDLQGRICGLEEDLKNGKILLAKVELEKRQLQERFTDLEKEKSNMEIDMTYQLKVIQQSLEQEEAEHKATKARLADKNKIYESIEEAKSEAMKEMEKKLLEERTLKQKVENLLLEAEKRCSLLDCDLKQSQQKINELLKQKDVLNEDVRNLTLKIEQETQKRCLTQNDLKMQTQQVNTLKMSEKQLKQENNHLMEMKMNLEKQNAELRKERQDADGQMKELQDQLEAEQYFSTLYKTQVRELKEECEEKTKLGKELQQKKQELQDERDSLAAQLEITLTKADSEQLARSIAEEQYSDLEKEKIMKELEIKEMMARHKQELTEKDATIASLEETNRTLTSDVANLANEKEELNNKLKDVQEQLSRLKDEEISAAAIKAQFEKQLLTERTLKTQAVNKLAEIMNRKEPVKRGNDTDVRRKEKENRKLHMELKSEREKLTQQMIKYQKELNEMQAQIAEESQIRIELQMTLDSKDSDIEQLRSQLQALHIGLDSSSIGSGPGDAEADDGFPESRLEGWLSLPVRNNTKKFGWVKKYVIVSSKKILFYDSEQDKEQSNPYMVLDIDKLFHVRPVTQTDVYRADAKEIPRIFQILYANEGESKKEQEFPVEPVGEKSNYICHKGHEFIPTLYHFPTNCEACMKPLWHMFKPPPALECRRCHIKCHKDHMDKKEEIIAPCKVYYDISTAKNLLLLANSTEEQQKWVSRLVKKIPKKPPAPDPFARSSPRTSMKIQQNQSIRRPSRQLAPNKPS
# [5] = molecular target: T1, Serine/threonine-protein kinase PLK4 (Homo sapiens) (UniProt O00444); assay: Selectivity interaction (Kinase panel (DSF assay)) EUB0001489b PLK4
# T1 sequence (whole entry): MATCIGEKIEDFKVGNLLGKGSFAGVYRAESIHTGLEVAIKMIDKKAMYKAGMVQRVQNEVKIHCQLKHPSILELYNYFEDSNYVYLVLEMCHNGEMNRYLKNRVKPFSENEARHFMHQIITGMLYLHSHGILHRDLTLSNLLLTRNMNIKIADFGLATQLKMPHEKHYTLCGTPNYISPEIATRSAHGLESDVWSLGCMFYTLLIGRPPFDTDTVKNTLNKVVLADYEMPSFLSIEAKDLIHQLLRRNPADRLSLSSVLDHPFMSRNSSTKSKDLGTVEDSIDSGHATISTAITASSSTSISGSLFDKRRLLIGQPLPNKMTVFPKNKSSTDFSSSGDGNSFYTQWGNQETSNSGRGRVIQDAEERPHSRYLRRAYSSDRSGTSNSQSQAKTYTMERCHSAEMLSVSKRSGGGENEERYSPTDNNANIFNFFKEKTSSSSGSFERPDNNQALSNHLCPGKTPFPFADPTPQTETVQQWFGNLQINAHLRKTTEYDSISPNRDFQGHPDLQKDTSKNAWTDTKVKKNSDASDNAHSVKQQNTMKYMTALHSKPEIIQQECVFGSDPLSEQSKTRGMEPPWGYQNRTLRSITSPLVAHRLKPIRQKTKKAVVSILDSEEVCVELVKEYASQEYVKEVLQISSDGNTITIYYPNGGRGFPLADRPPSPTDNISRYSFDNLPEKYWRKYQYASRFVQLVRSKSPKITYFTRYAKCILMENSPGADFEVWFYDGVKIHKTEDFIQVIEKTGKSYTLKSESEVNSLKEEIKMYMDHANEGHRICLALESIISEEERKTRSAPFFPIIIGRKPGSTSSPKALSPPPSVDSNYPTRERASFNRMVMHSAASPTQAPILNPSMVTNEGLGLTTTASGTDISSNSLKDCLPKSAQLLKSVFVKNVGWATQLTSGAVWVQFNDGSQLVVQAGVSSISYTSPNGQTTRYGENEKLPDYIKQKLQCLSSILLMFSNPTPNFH
# [6] = molecular target: T2, Serine/threonine-protein kinase 4 (Homo sapiens) (UniProt Q13043); assay: Selectivity interaction (SelectScreen profiling (Invitrogen)) EUB0000607a STK4; details: at 2 µM
# T2 sequence (whole entry): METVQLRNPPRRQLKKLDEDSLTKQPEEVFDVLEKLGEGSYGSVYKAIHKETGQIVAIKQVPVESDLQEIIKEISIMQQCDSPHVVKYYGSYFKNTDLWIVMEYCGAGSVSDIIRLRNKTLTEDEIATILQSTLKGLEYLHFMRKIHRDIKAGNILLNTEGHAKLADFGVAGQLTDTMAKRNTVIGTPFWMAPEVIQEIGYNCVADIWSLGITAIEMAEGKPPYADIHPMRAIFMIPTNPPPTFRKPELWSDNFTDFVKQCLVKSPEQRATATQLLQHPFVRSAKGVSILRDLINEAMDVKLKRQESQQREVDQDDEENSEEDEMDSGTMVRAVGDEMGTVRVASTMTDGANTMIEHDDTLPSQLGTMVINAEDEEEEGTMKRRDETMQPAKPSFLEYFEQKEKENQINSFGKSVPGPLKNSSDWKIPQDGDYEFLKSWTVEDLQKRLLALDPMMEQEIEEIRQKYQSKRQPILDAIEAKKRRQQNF
# [7] = molecular target: T3, Mitogen-activated protein kinase 15 (Homo sapiens) (UniProt Q8TD08); assay: Selectivity interaction (KinomeScan (DiscoverX)) EUB0000092b MAPK15; details: at 10 µM
# T3 sequence (whole entry): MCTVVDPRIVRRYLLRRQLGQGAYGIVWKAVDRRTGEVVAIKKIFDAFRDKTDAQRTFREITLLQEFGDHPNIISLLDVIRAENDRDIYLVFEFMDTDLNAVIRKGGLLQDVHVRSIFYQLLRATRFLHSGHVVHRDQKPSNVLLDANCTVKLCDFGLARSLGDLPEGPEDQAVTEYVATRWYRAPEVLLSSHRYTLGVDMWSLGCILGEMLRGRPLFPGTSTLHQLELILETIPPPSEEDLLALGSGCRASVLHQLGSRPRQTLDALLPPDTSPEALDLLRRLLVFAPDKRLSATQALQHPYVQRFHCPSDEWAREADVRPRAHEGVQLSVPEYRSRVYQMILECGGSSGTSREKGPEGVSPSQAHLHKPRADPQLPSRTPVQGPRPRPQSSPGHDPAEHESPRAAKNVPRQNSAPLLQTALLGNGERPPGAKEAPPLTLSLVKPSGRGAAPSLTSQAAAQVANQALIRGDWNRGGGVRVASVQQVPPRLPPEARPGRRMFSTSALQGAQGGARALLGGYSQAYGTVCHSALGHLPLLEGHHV
# [8] = molecular target: CDK4/Cyclin D3 (Homo sapiens) (UniProt P11802+P30281); assay: (§1) Selectivity interaction (Ambit KINOMEscan and KiNATiv profiling in Jurkat cells) EUB0000090b CDK4; type: cell-based; details: at 1 µM
# [9] = molecular target: Cyclin-dependent kinase 4/cyclin D1 (Homo sapiens) (UniProt P11802+P24385); assay: as §1; type: cell-based; details: at 1 µM
# [10] = molecular target: Mitogen-activated protein kinase 8 (Homo sapiens, UniProt P45983); assay: Selectivity interaction (Ambit KINOMEscan and KiNATiv profiling in Jurkat cells) EUB0000090b MAPK8; type: cell-based; details: at 1 µM
# Chain of Mitogen-activated protein kinase 8 (P45983 whole entry): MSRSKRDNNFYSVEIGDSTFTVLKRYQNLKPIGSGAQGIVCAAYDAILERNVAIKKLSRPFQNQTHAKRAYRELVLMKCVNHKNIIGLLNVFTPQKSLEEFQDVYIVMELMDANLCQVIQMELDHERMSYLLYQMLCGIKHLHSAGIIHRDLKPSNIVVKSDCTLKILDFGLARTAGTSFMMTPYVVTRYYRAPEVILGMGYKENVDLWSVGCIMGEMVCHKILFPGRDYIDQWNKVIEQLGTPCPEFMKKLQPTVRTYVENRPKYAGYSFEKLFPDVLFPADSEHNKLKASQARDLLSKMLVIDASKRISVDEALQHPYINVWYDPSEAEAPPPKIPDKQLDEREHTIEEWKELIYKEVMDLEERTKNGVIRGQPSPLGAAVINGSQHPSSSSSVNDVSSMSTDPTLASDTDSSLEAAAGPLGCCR
# [11] = molecular target: Ephrin type-A receptor 5 (Homo sapiens) (UniProt P54756); assay: Selectivity interaction (Ambit KINOMEscan and KiNATiv profiling in Jurkat cells) EUB0000090b EPHA5; type: cell-based; details: at 1 µM
# Chain of Ephrin type-A receptor 5 (Homo sapiens) (P54756 whole entry): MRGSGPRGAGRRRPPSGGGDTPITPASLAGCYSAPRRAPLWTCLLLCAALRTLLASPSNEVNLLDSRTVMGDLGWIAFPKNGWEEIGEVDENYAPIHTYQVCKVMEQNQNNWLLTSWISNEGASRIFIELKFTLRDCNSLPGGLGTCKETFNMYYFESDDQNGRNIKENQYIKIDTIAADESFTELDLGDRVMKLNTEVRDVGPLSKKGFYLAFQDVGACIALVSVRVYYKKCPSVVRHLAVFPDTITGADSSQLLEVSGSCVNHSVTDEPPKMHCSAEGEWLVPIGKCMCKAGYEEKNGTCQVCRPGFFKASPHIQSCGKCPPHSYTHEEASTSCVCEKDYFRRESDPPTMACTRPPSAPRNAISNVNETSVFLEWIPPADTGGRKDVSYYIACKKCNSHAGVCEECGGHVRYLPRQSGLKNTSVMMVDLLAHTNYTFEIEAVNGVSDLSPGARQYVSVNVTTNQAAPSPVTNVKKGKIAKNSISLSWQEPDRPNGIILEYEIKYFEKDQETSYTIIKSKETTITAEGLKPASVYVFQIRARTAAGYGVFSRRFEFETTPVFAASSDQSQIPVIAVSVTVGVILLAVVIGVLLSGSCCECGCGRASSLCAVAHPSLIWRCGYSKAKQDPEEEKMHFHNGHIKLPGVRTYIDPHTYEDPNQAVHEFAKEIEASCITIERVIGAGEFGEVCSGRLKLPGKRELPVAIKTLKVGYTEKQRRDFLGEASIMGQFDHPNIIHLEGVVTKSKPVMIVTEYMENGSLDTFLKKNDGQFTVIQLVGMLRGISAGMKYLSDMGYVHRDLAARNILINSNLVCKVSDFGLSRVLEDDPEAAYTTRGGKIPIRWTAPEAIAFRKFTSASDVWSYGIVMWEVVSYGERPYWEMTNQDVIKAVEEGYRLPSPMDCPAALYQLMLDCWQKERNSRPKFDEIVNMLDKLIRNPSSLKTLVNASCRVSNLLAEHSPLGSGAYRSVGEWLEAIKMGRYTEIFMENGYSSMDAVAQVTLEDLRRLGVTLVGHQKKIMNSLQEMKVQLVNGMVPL
# Chain of Cyclin-dependent kinase 15 (Homo sapiens) (Q96Q40 whole entry): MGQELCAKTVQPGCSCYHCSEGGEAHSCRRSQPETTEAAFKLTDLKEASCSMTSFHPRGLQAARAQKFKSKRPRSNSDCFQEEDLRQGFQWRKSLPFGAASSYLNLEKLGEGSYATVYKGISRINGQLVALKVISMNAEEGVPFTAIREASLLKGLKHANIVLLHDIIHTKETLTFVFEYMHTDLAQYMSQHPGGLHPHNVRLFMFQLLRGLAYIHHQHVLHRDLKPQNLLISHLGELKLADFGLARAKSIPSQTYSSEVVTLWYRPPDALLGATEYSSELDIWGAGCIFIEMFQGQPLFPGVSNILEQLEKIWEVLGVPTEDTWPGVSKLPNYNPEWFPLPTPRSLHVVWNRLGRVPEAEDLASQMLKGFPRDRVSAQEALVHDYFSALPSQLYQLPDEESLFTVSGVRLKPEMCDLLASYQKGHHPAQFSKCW
# Chain of Mitogen-activated protein kinase 10 (P53779 whole entry): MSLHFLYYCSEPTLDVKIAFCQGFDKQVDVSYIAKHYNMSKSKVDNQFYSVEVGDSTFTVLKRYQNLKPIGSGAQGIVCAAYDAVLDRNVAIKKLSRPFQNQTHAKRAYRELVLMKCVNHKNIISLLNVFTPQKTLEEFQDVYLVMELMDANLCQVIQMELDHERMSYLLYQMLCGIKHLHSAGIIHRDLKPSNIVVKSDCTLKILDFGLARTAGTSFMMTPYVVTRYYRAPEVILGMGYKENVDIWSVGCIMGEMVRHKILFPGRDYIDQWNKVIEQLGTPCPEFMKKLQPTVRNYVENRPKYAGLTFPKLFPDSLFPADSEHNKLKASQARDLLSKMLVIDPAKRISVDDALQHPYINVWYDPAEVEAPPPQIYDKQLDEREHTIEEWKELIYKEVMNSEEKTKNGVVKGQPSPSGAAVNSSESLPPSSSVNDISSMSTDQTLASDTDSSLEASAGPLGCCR
compound,measurement,setting,value
O=C(NOC[C@H](O)CO)c1ccc(F)c(F)c1Nc1ccc(I)cc1F,% of control,[1],78%
Cc1cc([C@@H](C)Nc2ccccc2C(=O)O)c2nc(N3CCOCC3)cc(=O)n2c1 [AZD-6482],% of control,[2],82%
same,% of control,[3],70%
CN1Cc2nccc(-c3cn(C)nc3-c3ccc(F)cc3)c2C1=O,% of inhibition,[4],6%
CN1CCN(C(=O)c2ccc3cc2OCCOCCNc2ccn4ncc-3c4n2)CC1,dTM,[5],4 K
CNC(=O)Nc1ccc(-c2nc(N3CC4CCC(C3)O4)c3cnn(C4CCC5(CC4)OCCO5)c3n2)cc1,% of inhibition,[6],12%
CCC(=O)N1CCN(c2ccc(-n3c(=O)ccc4cnc5ccc(-c6cnc7ccccc7c6)cc5c43)cc2C(F)(F)F)CC1,% of control,[7],79%
CN(C)C/C=C/C(=O)Nc1ccc(C(=O)N2CCCC(Nc3ncc(Cl)c(-c4c[nH]c5ccccc45)n3)C2)cc1 (stereo unspecified),% of control,[8],94%
same,% of control,[9],59%
same,% of control,[10],0.95%
same,% of control,[11],89%
